Data on 65 molecules can be found in ChEMBL document CHEMBL4483862, “Open-source discovery of chemical leads for next-generation chemoprotective antimalarials” (2018).

In this assay the test system is Plasmodium berghei. Description: Luciferase/luciferin-expressing antifolate-resistant parasites were used to infect a culture of HepG2 cells that were pre-incubated with compounds. Infected hepatocytes emit light due to the luciferase reaction. Assay results are presented as the percent inhibition of light emission compared to control. […]. It counts as functional. The following applies: sporozoite; for IC50: read-out: LUCIFERASE INFECTION ASSAY - IC50; for IC90: read-out: LUCIFERASE INFECTION ASSAY - IC90.

As for `CCN1CCN(c2ccc(S(=O)(=O)N3CCCCC3)cc2NC(=O)COc2ccc(Cl)c(C)c2)CC1`, the half-inhibitory concentration (IC50) was 9.01 µM and the IC90 is > 10 µM.
Consider `COCCn1c(SC(C)C(=O)NCC2CCCO2)nc2scc(-c3ccc(F)cc3)c2c1=O` (stereo not given), for which the IC50 was > 10 µM and the IC90 is > 10 µM.
On to `Cc1[nH]c2ccc(C(=O)OC(C)C(=O)NCc3ccccc3)cc2c1C` (stereo not given), for which the IC50 came to 3.57 µM and the IC90 turned out to be 8.96 µM.
Take `CCN(CC(=O)Nc1ccccc1C(F)(F)F)C(=O)Cn1c(=O)cnc2ccccc21`: the IC50 was > 10 µM and the concentration for an effect of 90% (IC90) was > 10 µM.
With `CC(C)CN(C(=O)CN(C)C(=O)c1ccco1)c1c(N)n(CC(C)C)c(=O)[nH]c1=O`, the IC50 was > 10 µM and the IC90 is > 10 µM.
Consider `Cc1cccn2c(=O)cc(CSc3cc(C(=O)NC4CC4)c4ccccc4n3)nc12`, for which the IC50 is > 10 µM and the 90% effect concentration (IC90) is > 10 µM.
Turning to `CCCCOc1ccc(C(=O)NCC(=O)N2CCN(C/C=C/c3ccccc3)CC2)cc1`, the IC50 is 5.03 µM and the IC90 was 7.33 µM.
Turning to `COc1ccccc1NC(=O)C(=Cc1ccc(N2CCCC2)c([N+](=O)[O-])c1)C(=O)Nc1ccccc1OC`, the IC50 is > 10 µM and the IC90 is > 10 µM.
As for `O=C(CC12CC3CC(CC(C3)C1)C2)NCC(=O)Nc1ccc2[nH]c(=O)[nH]c2c1`, the IC50 was > 10 µM and the IC90 was > 10 µM.
For the molecule `CC(=O)N1CCc2cc(C(=O)C(C)OC(=O)/C(=C/c3ccc(F)cc3)c3cccs3)ccc21` (stereo not given), the IC50 came out at 7.08 µM and the 90% effect concentration (IC90) is > 10 µM.
Take `O=c1cc(CNC(CCCc2ccccc2)c2ccccc2)nc2ccc(Cl)cn12` (stereo not given): the IC50 is > 10 µM and the IC90 was > 10 µM.
For `O=C(Cn1cccc(C(F)(F)F)c1=O)NC(Cc1ccccc1)c1ccccc1` (stereo not given), the IC50 is > 10 µM and the IC90 is > 10 µM.
In the case of `COC(=O)/C(O)=C/C(=O)c1c(C)[nH]c(C(=O)OC)c1C`, the IC50 is > 10 µM and the IC90 is > 10 µM.
In the case of `CC(C)(C)C1CCC2(CC1)NC(=O)N(CC(=O)OCC(=O)N1CCN(Cc3ccccc3)C1=O)C2=O` (stereo not given), the IC50 was > 10 µM and the concentration for an effect of 90% (IC90) is > 10 µM.
Turning to `CON(C)S(=O)(=O)c1ccc(NC(=O)COc2cccc(C(C)(C)C)c2)cc1`, the IC50 is > 10 µM and the IC90 was > 10 µM.
In the case of `O=[N+]([O-])c1ccc(Nc2nc3ccc(Cl)cc3o2)cc1`, the IC50 was > 10 µM and the IC90 was > 10 µM.
`CC(Sc1nc2ccccc2c(=O)n1CCCN1CCOCC1)c1ccc(F)cc1` (stereo not given): the IC50 was > 10 µM and the IC90 is > 10 µM.
On to `CCOC(=O)c1c(NC(=O)CN(CC(C)C)C2CC2)sc(C(=O)Nc2ccc(C)cc2C)c1C`, for which the IC50 was found to be 4.24 µM and the 90% effect concentration (IC90) amounted to 5.26 µM.
Taken in the same sequence, the figures for `O=C(Cc1cccc2ccccc12)NCC(=O)Nc1nc(-c2ccccc2)cs1` were > 10 µM and > 10 µM.
As to `COc1ccc(-c2nc(C)c(C(=O)NCc3ccc(-n4cccn4)nc3)s2)cc1`, the IC50 was > 10 µM and the IC90 was > 10 µM.
For the molecule `CCOC(=O)c1c(C)[nH]c(C(=O)OCC(=O)NC23CC4CC(CC(C4)C2)C3)c1C`, the half-maximal inhibitory concentration (IC50) was > 10 µM and the IC90 was > 10 µM.
On to `CC(=O)Nc1ccc(/C=C2\S/C(=N\c3cccc4ccccc34)N(Cc3ccccc3F)C2=O)cc1`, for which the IC50 was determined as 6.52 µM and the IC90 was > 10 µM.
As to `Cc1cc(C)cc(-n2c(SCc3nc4ccccc4n3C(F)F)nc3ccccc3c2=O)c1`, the IC50 was > 10 µM and the IC90 was > 10 µM.
Consider `O=C(NC(CCCc1ccccc1)c1ccccc1)c1ccc(N2CCCS2(=O)=O)cc1` (stereo not given), for which the IC50 stood at 5.56 µM and the IC90 is 5.73 µM.
Regarding `O=C(Nc1cccc(NC(=O)c2cc(C3CC3)nc3c2nc2n3CCCCC2)c1)c1ccco1`, the IC50 is > 10 µM and the IC90 was > 10 µM.
For the molecule `COc1ccc(Cl)cc1NC(=O)CCN1CCN(c2ncc(C(F)(F)F)cc2Cl)CC1`, the IC50 was 4.95 µM and the IC90 came out at 9.88 µM.
Take `O=C(Nc1ncccc1O)c1ccc(S(=O)(=O)NCCc2cccs2)cc1`: the IC50 was found to be 0.134 µM and the IC90 is 0.176 µM.
Take `CSc1ccc(N2CC(C(=O)N(C)C(C)c3cccc([N+](=O)[O-])c3)CC2=O)cc1` (stereo not given): the IC50 was > 10 µM and the IC90 was > 10 µM.
As to `COCCCn1c(C)cc(C(=O)CSc2nc(C)nc3c2c(=O)n(C)c(=O)n3CC(C)C)c1C`, the IC50 is > 10 µM and the IC90 was > 10 µM.
In the case of `O=C(CN1CCN(C(c2ccc(F)cc2)c2ccc(F)cc2)CC1)Nc1nnc(-c2ccccc2)o1`, the IC50 stood at 1.23 µM and the IC90 turned out to be 1.43 µM.
Taken in the same sequence, the figures for `CC(=O)N1CCN(S(=O)(=O)c2ccc(C(=O)NCCCCCCC(C)C)cc2)CC1` were > 10 µM and > 10 µM.
With `COCCOc1ccc(C(F)(F)F)cc1NC(=O)COc1ccc2ccc(=O)oc2c1`, the IC50 is > 10 µM and the IC90 was > 10 µM.
Consider `Cc1cc(C(=O)CN(C)Cc2nc(=O)c3ccccc3[nH]2)c(C)n1CC1COc2ccccc2O1` (stereo not given), for which the IC50 stood at 0.371 µM and the 90% effect concentration (IC90) is > 10 µM.
Taken in the same sequence, the figures for `CC(C)CCCC(C)NC(=O)CSCc1cccc(C(=O)O)c1` (stereo not given) were > 10 µM and > 10 µM.
Taken in the same sequence, the figures for `CN1CCN(c2ccc(Cl)cc2NC(=O)CCc2nc3ccccc3s2)CC1` were > 10 µM and > 10 µM.
Taken in the same sequence, the figures for `CCOC(=O)c1c(NC(=O)CSc2nnc(N)[nH]2)sc(Br)c1-c1ccccc1` were 6.28 µM and > 10 µM.
Turning to `O=S(=O)(NCc1nnc2n1-c1ccccc1CC2)c1ccc(C2CCCCC2)cc1`, the IC50 is > 10 µM and the IC90 was > 10 µM.
For the molecule `CCCC1C/C(=C/c2ccc(C(=O)NC)cc2)C(=O)/C(=C/c2ccc(C(=O)NC)cc2)C1` (stereo not given), the IC50 turned out to be 3.29 µM and the IC90 amounted to 3.86 µM.
Turning to `Cc1cc(=O)n2nc(C(F)(F)F)n(CC(=O)Nc3ccc(Sc4ccc(C)c(C)c4)cc3)c2c1`, the IC50 is > 10 µM and the IC90 was > 10 µM.
With `Cc1ccc(CN(C)C(=O)NNC(=O)c2ccccc2)c(C)c1`, the IC50 is > 10 µM and the IC90 was > 10 µM.
Consider `COc1cc(/C=C/C(=O)Nc2nc3c(s2)CC(C)CC3)cc(OC)c1` (stereo not given), for which the IC50 is > 10 µM and the concentration for an effect of 90% (IC90) was > 10 µM.
In the case of `O=C(Nc1cccc([N+](=O)[O-])c1)NC1CCSc2ccc(F)cc21` (stereo not given), the IC50 came out at 3.86 µM and the IC90 amounted to 4.49 µM.
Taken in the same sequence, the figures for `CC(C)CN(C(=O)COC(=O)/C=C/c1nc2ccccc2s1)c1c(N)n(Cc2ccccc2)c(=O)[nH]c1=O` were 3.46 µM and 3.98 µM.
Taken in the same sequence, the figures for `COC(=O)c1occc1/C=C/C(=O)c1ccc(OCc2ccccc2)cc1` were > 10 µM and > 10 µM.
Take `O=C(CSc1nc2cc(S(=O)(=O)Nc3ccccc3Cl)ccc2o1)NCc1ccccc1`: the IC50 is > 10 µM and the IC90 was > 10 µM.
Turning to `N#C/C(=C\c1ccc2c(c1)OCCO2)c1ccc(C(F)(F)F)cn1`, the IC50 is > 10 µM and the IC90 is > 10 µM.
Take `CCOc1ccc(-c2nc(CSC(C)C(=O)Nc3c(Cl)cccc3Cl)cs2)cc1` (stereo not given): the IC50 was > 10 µM and the IC90 was > 10 µM.
Consider `COc1ccc(CN(CC(=O)NCCc2ccc(F)cc2)C(C)Cc2cccs2)cc1` (stereo not given), for which the IC50 was > 10 µM and the IC90 is > 10 µM.
`CC(=O)N1C=Cc2ccccc2C1CC(=O)Nc1ccc(Cl)c(S(=O)(=O)N2CCCC2)c1` (stereo not given): the IC50 was > 10 µM and the IC90 is > 10 µM.
On to `CN(CC(=O)Nc1ccc(-c2nnc3n2CCCCC3)cc1)C1CCS(=O)(=O)C1` (stereo not given), for which the 50% inhibitory concentration (IC50) was > 10 µM and the 90% effect concentration (IC90) is > 10 µM.
In the case of `Cc1ccc(S(=O)(=O)N(C)CC(=O)N(C)Cc2ccccc2OC(F)(F)F)cc1C`, the IC50 is > 10 µM and the IC90 was > 10 µM.
As for `COc1ccc(Nc2nnc(SC(C)C(=O)Nc3sccc3C(N)=O)s2)cc1` (stereo not given), the IC50 was > 10 µM and the IC90 was > 10 µM.
As for `COc1ccc(S(=O)(=O)N2CCN(C(=O)c3sc4nc5n(c(=O)c4c3C)CCCCC5)CC2)cc1`, the IC50 was > 10 µM and the IC90 is > 10 µM.
`O=C(Nc1nc(-c2ccc(Cl)cc2Cl)cs1)C1CCN(c2ccc(Cl)nn2)CC1`: the concentration for half-maximal inhibition (IC50) was > 10 µM and the IC90 was > 10 µM.
Take `Nc1nnc(SCC(=O)N(Cc2ccccc2)c2nc(-c3ccc(Cl)cc3)cs2)[nH]1`: the IC50 is > 10 µM and the IC90 is > 10 µM.
Consider `CCOC(=O)c1ccc(N2CCN(C(=O)CCc3cc(C(C)(C)C)c(O)c(C(C)(C)C)c3)CC2)nc1`, for which the IC50 is > 10 µM and the IC90 was > 10 µM.
Consider `O=C1/C(=C/c2ccc(SC(F)(F)F)cc2)SC(=S)N1CCN1CCOCC1`, for which the IC50 is > 10 µM and the IC90 is > 10 µM.
Regarding `CCN(c1ccccc1)S(=O)(=O)c1ccc(NNC(=O)Nc2cccc3ccccc23)nc1`, the IC50 came out at 8.75 µM and the concentration for an effect of 90% (IC90) was > 10 µM.
Taken in the same sequence, the figures for `CCOCCCn1c(SCc2nc(-c3cccs3)oc2C)nc2sc(C)c(C)c2c1=O` were > 10 µM and > 10 µM.
For the molecule `COC(=O)/C=C/c1ccc(OCC(O)COc2ccc(C(C)(C)C)cc2)c(OC)c1` (stereo not given), the IC50 was > 10 µM and the IC90 was > 10 µM.
Regarding `N#Cc1cccc(/C=C/C(=O)c2ccc(S(=O)(=O)N3CCCC3)cc2)c1`, the IC50 is > 10 µM and the IC90 was > 10 µM.
In the case of `O=C(Nc1ccc(-c2nc(-c3ccc(O)c(O)c3)cs2)cc1)c1cccs1`, the concentration for half-maximal inhibition (IC50) was > 10 µM and the IC90 is > 10 µM.
On to `C=CCN(C(=O)C1CCN(S(=O)(=O)c2cccs2)CC1)c1nc2c(s1)CCCC2`, for which the IC50 is > 10 µM and the IC90 is > 10 µM.
`COc1ccc(-c2cc(NC(=O)C(C)NS(=O)(=O)c3ccc(C)cc3)ccc2OC(F)F)cc1` (stereo not given): the IC50 was determined as 8.3 µM and the IC90 was > 10 µM.
Taken in the same sequence, the figures for `CC(=O)Nc1cccc(C(=O)/C=C/c2cn(-c3ccccc3)nc2-c2ccncc2)c1` were > 10 µM and > 10 µM.
